Data on 12 compounds can be found in US20260184662A1, “COMPOSITE OF ACID AND SALT, AND PREPARATION METHOD THEREFOR” (NANJING NUTRABUILDING BIO-TECH CO., LTD., priority 2022, published 2026).

A short description of data set [1]: Determination of moisture contents with KF moisture meter at different time points. The following applies: temperature 23° C., humidity 92.5%. Type of data set: physicochemical. The text has this:
For R-3-hydroxybutyric acid, potassium R-3-hydroxybutyrate, mixture of R-3-hydroxybutyric acid and potassium R-3-hydroxybutyrate, and R-3-hydroxybutyric acid·potassium R-3-hydroxybutyrate complex of Example 1, under a certain condition, KF moisture meter was used to determine the moisture contents at different time points.
For 3-hydroxybutyric acid, potassium 3-hydroxybutyrate, mixture of 3-hydroxybutyric acid and potassium 3-hydroxybutyrate, and 3-hydroxybutyric acid·potassium 3-hydroxybutyrate complex of Example 7, under a certain condition, KF moisture meter was used to determine the moisture contents at different time points.
For S-3-hydroxybutyric acid, potassium S-3-hydroxybutyrate, mixture of S-3-hydroxybutyric acid and potassium S-3-hydroxybutyrate, and S-3-hydroxybutyric acid·potassium S-3-hydroxybutyrate complex of Example 13, under a certain condition, KF moisture meter was used to determine the moisture contents at different time points.
For R-3-hydroxybutyric acid, calcium R-3-hydroxybutyrate, mixture of R-3-hydroxybutyric acid and calcium R-3-hydroxybutyrate, and R-3-hydroxybutyric acid·calcium R-3-hydroxybutyrate complex of Example 19, under a certain condition, KF moisture meter was used to determine the moisture contents at different time points.
For 3-hydroxybutyric acid, calcium 3-hydroxybutyrate, mixture of 3-hydroxybutyric acid and calcium 3-hydroxybutyrate, and 3-hydroxybutyric acid·calcium 3-hydroxybutyrate complex of Example 25, under a certain condition, KF moisture meter was used to determine the moisture contents at different time points.
For S-3-hydroxybutyric acid, calcium S-3-hydroxybutyrate, mixture of S-3-hydroxybutyric acid and calcium S-3-hydroxybutyrate, and S-3-hydroxybutyric acid·calcium S-3-hydroxybutyrate complex of Example 31, under a certain condition, KF moisture meter was used to determine the moisture contents at different time points.
For R-3-hydroxybutyric acid, magnesium R-3-hydroxybutyrate, mixture of R-3-hydroxybutyric acid and magnesium R-3-hydroxybutyrate, and R-3-hydroxybutyric acid·magnesium R-3-hydroxybutyrate complex of Example 37, under a certain condition, KF moisture meter was used to determine the moisture contents at different time points.
For 3-hydroxybutyric acid, magnesium 3-hydroxybutyrate, mixture of 3-hydroxybutyric acid and magnesium 3-hydroxybutyrate, and 3-hydroxybutyric acid·magnesium 3-hydroxy butyrate complex of Example 43, under a certain condition, KF moisture meter was used to determine the moisture contents at different time points.
For S-3-hydroxybutyric acid, magnesium S-3-hydroxybutyrate, mixture of S-3-hydroxybutyric acid and magnesium S-3-hydroxybutyrate, and S-3-hydroxybutyric acid·magnesium S-3-hydroxybutyrate complex of Example 49, under a certain condition, KF moisture meter was used to determine the moisture contents at different time points.
For R-3-hydroxypentanoic acid, sodium R-3-hydroxypentanoate, mixture of R-3-hydroxypentanoic acid and sodium R-3-hydroxypentanoate, and R-3-hydroxypentanoic acid·sodium R-3-hydroxypentanoate complex of Example 55, under a certain condition, KF moisture meter was used to determine the moisture contents at different time points.
For 3-hydroxypentanoic acid, sodium 3-hydroxypentanoate, mixture of 3-hydroxypentanoic acid and sodium 3-hydroxypentanoate, and 3-hydroxypentanoic acid·sodium 3-hydroxypentanoate complex of Example 61, under a certain condition, KF moisture meter was used to determine the moisture contents at different time points.
For S-3-hydroxypentanoic acid, sodium S-3-hydroxypentanoate, mixture of S-3-hydroxypentanoic acid and sodium S-3-hydroxypentanoate, and S-3-hydroxypentanoic acid·sodium S-3-hydroxypentanoate complex of Example 67, under a certain condition, KF moisture meter was used to determine the moisture contents at different time points.

A short description of data set [2]: Stability of complexes at 30-80° C. Type of data set: physicochemical. An excerpt: For R-3-hydroxybutyric acid, potassium R-3-hydroxybutyrate, mixture of R-3-hydroxybutyric acid and potassium R-3-hydroxybutyrate, and R-3-hydroxybutyric acid·potassium R-3-hydroxybutyrate complex of Example 1, […]
For 3-hydroxybutyric acid, potassium 3-hydroxybutyrate, mixture of 3-hydroxybutyric acid and potassium 3-hydroxybutyrate, and 3-hydroxybutyric acid·potassium 3-hydroxybutyrate complex of Example 7, […]
For S-3-hydroxybutyric acid, potassium S-3-hydroxybutyrate, mixture of S-3-hydroxybutyric acid and potassium S-3-hydroxybutyrate, and S-3-hydroxybutyric acid·potassium S-3-hydroxybutyrate complex of Example 13, […]
For R-3-hydroxybutyric acid, calcium R-3-hydroxybutyrate, mixture of R-3-hydroxybutyric acid and calcium R-3-hydroxybutyrate, and R-3-hydroxybutyric acid·calcium R-3-hydroxybutyrate complex of Example 19, […]
For 3-hydroxybutyric acid, calcium 3-hydroxybutyrate, mixture of 3-hydroxybutyric acid and calcium 3-hydroxybutyrate, and 3-hydroxybutyric acid·calcium 3-hydroxybutyrate complex of Example 25, […]
For S-3-hydroxybutyric acid, calcium S-3-hydroxybutyrate, mixture of S-3-hydroxybutyric acid and calcium S-3-hydroxybutyrate, and S-3-hydroxybutyric acid·calcium S-3-hydroxybutyrate complex of Example 31, […]
For R-3-hydroxybutyric acid, magnesium R-3-hydroxybutyrate, mixture of R-3-hydroxybutyric acid and magnesium R-3-hydroxybutyrate, and R-3-hydroxybutyric acid·magnesium R-3-hydroxybutyrate complex of Example 37, […]
For 3-hydroxybutyric acid, magnesium 3-hydroxybutyrate, mixture of 3-hydroxybutyric acid and magnesium 3-hydroxybutyrate, and 3-hydroxybutyric acid·magnesium 3-hydroxybutyrate complex of Example 43, […]
For S-3-hydroxybutyric acid, magnesium S-3-hydroxybutyrate, mixture of S-3-hydroxybutyric acid and magnesium S-3-hydroxybutyrate, and S-3-hydroxybutyric acid·magnesium S-3-hydroxybutyrate complex of Example 49, […]
For R-3-hydroxypentanoic acid, sodium R-3-hydroxypentanoate, mixture of R-3-hydroxypentanoic acid and sodium R-3-hydroxypentanoate, and R-3-hydroxypentanoic acid·sodium R-3-hydroxypentanoate complex of Example 55, […]
For 3-hydroxypentanoic acid, sodium 3-hydroxypentanoate, mixture of 3-hydroxypentanoic acid and sodium 3-hydroxypentanoate, and 3-hydroxypentanoic acid·sodium 3-hydroxypentanoate complex of Example 61, […]
For S-3-hydroxypentanoic acid, sodium S-3-hydroxypentanoate, mixture of S-3-hydroxypentanoic acid and sodium S-3-hydroxypentanoate, and S-3-hydroxypentanoic acid·sodium S-3-hydroxypentanoate complex of Example 67, […]

On to calcium R-3-hydroxybutyrate, for which the “moisture content (%)” value was 0.92% in data set [1] (30 min); 1.82% in data set [1] (1 h); 2.43% in data set [1] (2 h); 4.22% in data set [1] (4 h); 5.35% in data set [1] (6 h); 6.04% in data set [1] (7 h). Further, the “moisture content (%)” value in data set [1] (11 h) was determined as 10.44%; in data set [1] (22 h), 17.68%. Besides, the Stability entry in data set [2] (30° C.) was “unchanged”; in data set [2] (40° C.), “unchanged”; in data set [2] (60° C.), “melted”; in data set [2] (70° C.), “melted”; in data set [2] (80° C.), “melted”.

For the compound calcium 3-hydroxybutyrate, the “moisture content (%)” value in data set [1] (30 min) is recorded as 0.97%; in data set [1] (1 h) it was 1.81%; in data set [1] (2 h) it was 2.34%; in data set [1] (4 h), 4.12%; in data set [1] (6 h) it was 5.22%; in data set [1] (7 h) it was 6.01%. In addition, the “moisture content (%)” value in data set [1] (11 h) is recorded as 10.24%; in data set [1] (22 h) it was 17.72%. The Stability entry was “unchanged” in data set [2] (30° C.); “unchanged” in data set [2] (40° C.); “melted” in data set [2] (60° C.); “melted” in data set [2] (70° C.); “melted” in data set [2] (80° C.).

Turning to `CC[C@H](O)CC(=O)O` [S-3-hydroxypentanoic acid], the “moisture content (%)” value in data set [1] (30 min) is reported as 1.03%; in data set [1] (1 h), 1.90%; in data set [1] (2 h) it was 3.38%; in data set [1] (4 h) it was 5.27%; in data set [1] (6 h) it was 7.94%; in data set [1] (7 h), 8.85%. In addition, the “moisture content (%)” value in data set [1] (11 h) worked out at 14.23%; in data set [1] (22 h), 27.46%.

Consider `C[C@H](O)CC(=O)[O-].C[C@H](O)CC(=O)[O-].[Ca+2]` [Calcium S-3-hydroxybutyrate, calcium S-3-hydroxybutyrate], for which the “moisture content (%)” value is 0.88% in data set [1] (30 min); 1.92% in data set [1] (1 h); 2.25% in data set [1] (2 h); 4.18% in data set [1] (4 h); 5.24% in data set [1] (6 h); 6.25% in data set [1] (7 h). For the same compound, the “moisture content (%)” value is 10.34% in data set [1] (11 h) and 17.55% in data set [1] (22 h).

For `C[C@@H](O)CC(=O)O` [R-3-hydroxybutyric acid], the “moisture content (%)” value in data set [1] (30 min) is given as 1.13%; in data set [1] (1 h) it was 2.25%; in data set [1] (2 h) it was 3.96%; in data set [1] (4 h) it was 6.46%; in data set [1] (6 h), 9.52%; in data set [1] (7 h), 10.56%. In addition, the “moisture content (%)” value in data set [1] (11 h) was 17.22%; in data set [1] (22 h) it was 33.34%.

Regarding `CC(O)CC(=O)O` (stereo not shown) [3-hydroxybutyric acid], the “moisture content (%)” value is reported as 1.32% in data set [1] (30 min); 2.37% in data set [1] (1 h); 4.15% in data set [1] (2 h); 6.59% in data set [1] (4 h); 9.68% in data set [1] (6 h); 10.71% in data set [1] (7 h). Moreover, the entries for the “moisture content (%)” value in data set [1] (11 h) and in data set [1] (22 h) were 17.33% and 33.51%, respectively.

Turning to `CC[C@@H](O)CC(=O)O` [R-3-hydroxypentanoic acid], the “moisture content (%)” value in data set [1] (30 min) was determined as 0.94%; in data set [1] (1 h), 1.88%; in data set [1] (2 h) it was 3.30%; in data set [1] (4 h) it was 5.38%; in data set [1] (6 h) it was 7.93%; in data set [1] (7 h), 8.80%. In addition, the figures for the “moisture content (%)” value in data set [1] (11 h) and in data set [1] (22 h) were 14.35% and 27.78%, respectively.

In the case of `C[C@H](O)CC(=O)[O-].[K+]` [Potassium S-3-hydroxybutyrate, potassium S-3-hydroxybutyrate], the “moisture content (%)” value worked out at 1.06% in data set [1] (30 min); 1.92% in data set [1] (1 h); 3.22% in data set [1] (2 h); 4.97% in data set [1] (4 h); 7.55% in data set [1] (6 h); 8.34% in data set [1] (7 h). In addition, the “moisture content (%)” value came out at 16.82% in data set [1] (11 h) and 32.75% in data set [1] (22 h).

Take `C[C@@H](O)CC(=O)[O-].[K+]` [Potassium R-3-hydroxybutyrate, potassium R-3-hydroxybutyrate]: the “moisture content (%)” value in data set [1] (30 min) stood at 1.04%; in data set [1] (1 h), 1.91%; in data set [1] (2 h), 3.19%; in data set [1] (4 h), 4.93%; in data set [1] (6 h), 7.65%; in data set [1] (7 h), 8.24%. Also, the “moisture content (%)” value was found to be 16.72% in data set [1] (11 h) and 32.68% in data set [1] (22 h).

For the compound `CCC(O)CC(=O)O` (stereo not shown) [3-hydroxypentanoic acid], the “moisture content (%)” value came to 1.10% in data set [1] (30 min); 1.98% in data set [1] (1 h); 3.46% in data set [1] (2 h); 5.49% in data set [1] (4 h); 8.07% in data set [1] (6 h); 8.93% in data set [1] (7 h). In addition, the “moisture content (%)” value is listed as 14.44% in data set [1] (11 h) and 27.93% in data set [1] (22 h).

With `C[C@H](O)CC(=O)[O-].C[C@H](O)CC(=O)[O-].[Mg+2]` [Magnesium S-3-hydroxybutyrate, magnesium S-3-hydroxybutyrate], the “moisture content (%)” value in data set [1] (30 min) is reported as 0.88%; in data set [1] (1 h), 1.28%; in data set [1] (2 h), 2.43%; in data set [1] (4 h) it was 4.22%; in data set [1] (6 h), 6.37%; in data set [1] (7 h), 8.24%. The figures for the “moisture content (%)” value in data set [1] (11 h) and in data set [1] (22 h) were 12.35% and 18.54%, respectively.

Consider `CC(O)CC(=O)[O-].[K+]` (stereo not shown) [Potassium 3-hydroxybutyrate, potassium 3-hydroxybutyrate], for which the “moisture content (%)” value was 1.14% in data set [1] (30 min); 1.93% in data set [1] (1 h); 3.22% in data set [1] (2 h); 4.98% in data set [1] (4 h); 7.77% in data set [1] (6 h); 8.34% in data set [1] (7 h). Moreover, the entries for the “moisture content (%)” value in data set [1] (11 h) and in data set [1] (22 h) were 16.82% and 32.86%, respectively.
